Here are results for 19 compounds from ChEMBL document CHEMBL3611967, “Molecular design and synthesis of certain new quinoline derivatives having potential anticancer activity” (Eur J Med Chem, 2015).

One assay relates to MCF7. Description: Anticancer against human MCF7 cells assessed as tumor growth inhibition after 72 hrs by SRB assay. It counts as functional, cell-based. The conditions noted are these: MCF7, 72 h.
Assay [1] concerns the target T1, Epidermal growth factor receptor (Homo sapiens, UniProt P00533). Description: Inhibition of epidermal growth factor receptor kinase (unknown origin) using [33P]-ATP after 20 to 30 mins by radiometric assay.
Assay [2] deals with T1, Epidermal growth factor receptor. The assay is described as follows: Inhibition of epidermal growth factor receptor kinase (unknown origin) using [33P]-ATP at 0.001 uM after 20 to 30 mins by radiometric assay.
The target is the same in assay [3]. The assay is described as follows: Inhibition of epidermal growth factor receptor kinase (unknown origin) using [33P]-ATP at 0.1 mM after 20 to 30 mins by radiometric assay.

T1 sequence (P00533 whole entry): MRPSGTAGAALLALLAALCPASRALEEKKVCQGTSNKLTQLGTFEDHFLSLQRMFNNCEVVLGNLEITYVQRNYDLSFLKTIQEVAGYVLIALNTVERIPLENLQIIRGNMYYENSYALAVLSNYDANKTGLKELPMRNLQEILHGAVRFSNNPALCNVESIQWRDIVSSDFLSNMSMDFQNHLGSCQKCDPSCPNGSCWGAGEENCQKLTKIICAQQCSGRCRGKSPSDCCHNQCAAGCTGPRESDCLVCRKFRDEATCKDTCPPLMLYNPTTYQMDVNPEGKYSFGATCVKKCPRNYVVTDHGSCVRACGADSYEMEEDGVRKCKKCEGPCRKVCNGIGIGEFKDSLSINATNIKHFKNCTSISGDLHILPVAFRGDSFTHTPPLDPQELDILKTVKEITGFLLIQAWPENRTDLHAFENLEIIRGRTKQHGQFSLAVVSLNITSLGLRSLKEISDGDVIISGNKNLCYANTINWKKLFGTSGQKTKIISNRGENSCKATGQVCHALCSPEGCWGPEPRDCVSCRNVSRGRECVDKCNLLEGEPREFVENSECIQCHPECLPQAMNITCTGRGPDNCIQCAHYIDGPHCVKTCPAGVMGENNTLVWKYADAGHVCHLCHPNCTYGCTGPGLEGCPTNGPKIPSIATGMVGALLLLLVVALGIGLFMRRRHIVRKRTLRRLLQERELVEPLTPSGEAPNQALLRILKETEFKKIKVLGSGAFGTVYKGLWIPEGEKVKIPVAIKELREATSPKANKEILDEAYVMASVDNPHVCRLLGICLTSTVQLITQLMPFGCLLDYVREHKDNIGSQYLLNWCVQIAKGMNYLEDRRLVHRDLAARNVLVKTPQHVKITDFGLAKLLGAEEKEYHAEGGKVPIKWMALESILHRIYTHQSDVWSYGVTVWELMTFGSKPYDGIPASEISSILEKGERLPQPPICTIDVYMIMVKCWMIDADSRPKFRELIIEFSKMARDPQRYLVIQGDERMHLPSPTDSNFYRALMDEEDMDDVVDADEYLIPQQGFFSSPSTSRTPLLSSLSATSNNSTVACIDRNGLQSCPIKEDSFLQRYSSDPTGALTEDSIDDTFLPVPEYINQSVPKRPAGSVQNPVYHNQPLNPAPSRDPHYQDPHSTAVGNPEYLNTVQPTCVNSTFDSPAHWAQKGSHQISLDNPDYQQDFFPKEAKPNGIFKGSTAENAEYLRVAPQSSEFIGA

For `CN(C)c1ccc(/C=C/C(=O)c2ccc3ncc(C(N)=O)c(Nc4ccc(Br)cc4)c3c2)cc1`, in the assay with MCF7, the 50% inhibitory concentration (IC50) turned out to be 51 µM.
On to `Cc1cc(NS(=O)(=O)c2ccc3ncc(C(N)=O)c(Nc4ccc(Br)cc4)c3c2)no1`, for which the IC50 with MCF7 was determined as 33.7 µM.
For `NC(=O)c1cnc2ccc(-c3csc(N)n3)cc2c1Nc1ccc(Cl)cc1`, the IC50 with MCF7 is 315 µM.
`Cc1ccc(Nc2c(C(N)=O)cnc3ccc(-c4csc(N)n4)cc23)cc1`: the IC50 in the assay with MCF7 stood at 62.2 µM.
As for `NC(=O)c1cnc2ccc(C(=O)/C=C/c3ccc(Cl)cc3)cc2c1Nc1ccc(Cl)cc1`, in the assay on MCF7, the half-maximal inhibitory concentration (IC50) amounted to 277 µM.
On to `Cc1cc(NS(=O)(=O)c2ccc(N/C=C(/C#N)C(=O)Nc3ccc(Br)cc3)cc2)no1`, for which, in the assay on MCF7, the half-maximal inhibitory concentration (IC50) came out at 14 µM.
The compound `C=CC(=O)Nc1ccc2ncnc(Nc3cc(F)c(Cl)c(Cl)c3)c2c1` gave a half-maximal inhibitory concentration (IC50) in assay [1] of 3.7e-05 µM.
On to `NC(=O)c1cnc2ccc(-c3csc(NC(=S)Nc4ccccc4)n3)cc2c1Nc1ccc(Cl)cc1`, for which the half-inhibitory concentration (IC50) in the assay on MCF7 is 326 µM.
Regarding `Cc1ccc(NC(=O)/C(C#N)=C\Nc2ccc(S(=O)(=O)Nc3cc(C)on3)cc2)cc1`, in the assay with MCF7, the IC50 turned out to be 50.9 µM.
Consider `CN(C)c1ccc(/C=C/C(=O)c2ccc3ncc(C(N)=O)c(Nc4ccc(Cl)cc4)c3c2)cc1`, for which the IC50 came out at 3.46 µM in the assay with MCF7 and 5.28 µM in assay [1]. For the same compound, the inhibition came out at 1% in assay [2] and 3% in assay [3].
Turning to `Cc1cc(NS(=O)(=O)c2ccc3ncc(C(N)=O)c(Nc4ccc(Cl)cc4)c3c2)no1`, the IC50 in the assay with MCF7 was determined as 145 µM.
With `NC(=O)c1cnc2ccc(C(=O)/C=C/c3ccc(Cl)cc3)cc2c1Nc1ccc(Br)cc1`, the IC50 was determined as 328 µM in the assay on MCF7 and 4.82 µM in assay [1]. Moreover, the inhibition in assay [2] was 0%; in assay [3] it was -3%.
Take `NC(=O)c1cnc2ccc(-c3csc(NC(=S)Nc4ccccc4)n3)cc2c1Nc1ccc(Br)cc1`: the IC50 with MCF7 was 657 µM.
With `Cc1ccc(Nc2c(C(N)=O)cnc3ccc(C(=O)/C=C/c4ccc(Cl)cc4)cc23)cc1`, in the assay on MCF7, the IC50 was 41.2 µM.
For `Cc1ccc(Nc2c(C(N)=O)cnc3ccc(C(=O)/C=C/c4ccc(N(C)C)cc4)cc23)cc1`, the IC50 in the assay with MCF7 was found to be 2.16 µM.
Same read-out and setting: for `NC(=O)c1cnc2ccc(-c3csc(N)n3)cc2c1Nc1ccc(Br)cc1` the value was 334 µM.
As for `Cc1ccc(Nc2c(C(N)=O)cnc3ccc(S(=O)(=O)Nc4cc(C)on4)cc23)cc1`, in the assay with MCF7, the IC50 was 120 µM.
In the case of `Cc1cc(NS(=O)(=O)c2ccc(N/C=C(/C#N)C(=O)Nc3ccc(Cl)cc3)cc2)no1`, the IC50 in the assay with MCF7 amounted to 28.4 µM.
On to `Cc1ccc(Nc2c(C(N)=O)cnc3ccc(-c4csc(NC(=S)Nc5ccccc5)n4)cc23)cc1`, for which the IC50 with MCF7 is 386 µM.

The IC50 is the concentration that inhibits the measured activity by half. As a reminder, the inhibition is the relative decrease from the control value, in per cent.
